Read-outs that look alike come from different tables or passages of the source.
System: non-gonococcal Neisseria
Test: MIC determination for non-gonococcal Neisseria, agar dilution
Format: cell-based, Neisseria species
Details: read-out: Minimum inhibitory concentration
Description: The 2024 WHO N. gonorrhoeae reference strains were used for quality control. Only whole MIC doubling dilutions are reported. Clinical breakpoints or the epidemiological cutoff (ECOFF, to indicate azithromycin resistance) from EUCAST (v14.0, https://www.eucast.org/clinical_breakpoints) were used to classify isolates as antimicrobial susceptible or resistant. […] Two times the standard inoculum defined by CLSI was used to establish consistent growth in untreated control samples for some strains. In vitro time-kill assays were performed according to CLSI guidelines[65] using Columbia Broth (BD Difco) supplemented with 1% IsoVitaleX Enrichment (BD). Viable bacterial counts were generated by plating 10-fold serially diluted samples on GC agar plates containing 1% IsoVitaleX Enrichment (BD).

Measured: MIC

Cc1c(CN(C)C(=O)/C=C/c2cnc3c(c2)N[C@H](C)[C@H](O)C(=O)N3)oc2ccccc12 [Debio 1453]
0.032 µg/mL: Neisseria cinerea 1, Consensus | Neisseria cinerea 1, Replicate 1 | Neisseria cinerea 1, Replicate 2 | Neisseria cinerea 1, Replicate 3 | Neisseria cinerea 6, Replicate 1 | Neisseria flavescens 1, Replicate 1 | Neisseria gonorrhoeae subspecies kochii 1, Replicate 1 | Neisseria lactamica 1, Consensus | Neisseria lactamica 1, Replicate 1
0.016 µg/mL: Neisseria cinerea 3, Replicate 2 | Neisseria cinerea 6, Consensus | Neisseria cinerea 6, Replicate 2 | Neisseria cinerea 6, Replicate 3 | Neisseria flavescens 1, Consensus | Neisseria flavescens 1, Replicate 2 | Neisseria flavescens 1, Replicate 3 | Neisseria gonorrhoeae subspecies kochii 1, Consensus | Neisseria gonorrhoeae subspecies kochii 1, Replicate 2 | Neisseria gonorrhoeae subspecies kochii 1, Replicate 3
0.5 µg/mL: Neisseria cinerea 7, Consensus | Neisseria cinerea 7, Replicate 1 | Neisseria cinerea 7, Replicate 2 | Neisseria cinerea 7, Replicate 3 | Neisseria cinerea 9, Consensus | Neisseria cinerea 9, Replicate 1 | Neisseria cinerea 9, Replicate 2 | Neisseria cinerea 9, Replicate 3 | Neisseria flavescens 4, Consensus | Neisseria flavescens 4, Replicate 2 | Neisseria flavescens 4, Replicate 3 | Neisseria flavescens 5, Consensus | Neisseria flavescens 5, Replicate 3 | Neisseria flavescens 7, Consensus | Neisseria flavescens 7, Replicate 1 | Neisseria flavescens 7, Replicate 2 | Neisseria flavescens 11, Consensus | Neisseria flavescens 11, Replicate 1 | Neisseria flavescens 11, Replicate 3 | Neisseria flavescens 17, Replicate 2
0.064 µg/mL: Neisseria flava 1, Replicate 2 | Neisseria flavescens 6, Consensus | Neisseria flavescens 6, Replicate 1 | Neisseria flavescens 6, Replicate 2 | Neisseria flavescens 6, Replicate 3 | Neisseria flavescens 8, Replicate 1 | Neisseria flavescens 12, Consensus | Neisseria flavescens 12, Replicate 1 | Neisseria flavescens 12, Replicate 2 | Neisseria lactamica 1, Replicate 2
0.008 µg/mL: Neisseria cinerea 3, Consensus | Neisseria cinerea 3, Replicate 1 | Neisseria cinerea 3, Replicate 3 | Neisseria gonorrhoeae subspecies kochii 2, Consensus | Neisseria gonorrhoeae subspecies kochii 2, Replicate 1 | Neisseria gonorrhoeae subspecies kochii 2, Replicate 2 | Neisseria gonorrhoeae subspecies kochii 2, Replicate 3 | Neisseria gonorrhoeae subspecies kochii 3, Consensus | Neisseria gonorrhoeae subspecies kochii 3, Replicate 1 | Neisseria gonorrhoeae subspecies kochii 3, Replicate 2 | Neisseria gonorrhoeae subspecies kochii 3, Replicate 3
1 µg/mL: Neisseria elongata 3, Consensus | Neisseria elongata 3, Replicate 1 | Neisseria elongata 3, Replicate 2 | Neisseria elongata 3, Replicate 3 | Neisseria flavescens 5, Replicate 2 | Neisseria flavescens 7, Replicate 3 | Neisseria flavescens 9, Consensus | Neisseria flavescens 9, Replicate 1 | Neisseria flavescens 9, Replicate 2 | Neisseria flavescens 9, Replicate 3 | Neisseria flavescens 11, Replicate 2 | Neisseria flavescens 13, Consensus | Neisseria flavescens 13, Replicate 1 | Neisseria flavescens 13, Replicate 2 | Neisseria flavescens 13, Replicate 3 | Neisseria flavescens 14, Consensus | Neisseria flavescens 14, Replicate 1 | Neisseria flavescens 14, Replicate 2 | Neisseria flavescens 14, Replicate 3 | Neisseria flavescens 15, Consensus | Neisseria flavescens 15, Replicate 1 | Neisseria flavescens 15, Replicate 2 | Neisseria flavescens 15, Replicate 3 | Neisseria flavescens 17, Consensus | Neisseria flavescens 17, Replicate 1 | Neisseria flavescens 17, Replicate 3
2 µg/mL: Neisseria elongata 2, Consensus | Neisseria elongata 2, Replicate 1 | Neisseria elongata 2, Replicate 2 | Neisseria elongata 2, Replicate 3
0.25 µg/mL: Neisseria animalis 1, Consensus | Neisseria animalis 1, Replicate 1 | Neisseria animalis 1, Replicate 2 | Neisseria animalis 1, Replicate 3 | Neisseria cinerea 2, Consensus | Neisseria cinerea 2, Replicate 1 | Neisseria cinerea 2, Replicate 2 | Neisseria cinerea 2, Replicate 3 | Neisseria cinerea 8, Replicate 1 | Neisseria flavescens 2, Replicate 2 | Neisseria flavescens 3, Consensus | Neisseria flavescens 3, Replicate 1 | Neisseria flavescens 3, Replicate 2 | Neisseria flavescens 3, Replicate 3 | Neisseria flavescens 4, Replicate 1 | Neisseria flavescens 5, Replicate 1 | Neisseria flavescens 10, Replicate 2 | Neisseria flavescens 16, Consensus | Neisseria flavescens 16, Replicate 1 | Neisseria flavescens 16, Replicate 2 | Neisseria flavescens 16, Replicate 3

— publication PMC12446476 (Nature Communications, 2025)
